“Also recorded” adds a separate entry of the source.
What was measured:
[1] = system: human microglial cell line; assay: qPCR of IL-6 induction in LPS+ATP-stimulated human microglial cell line (IGF1R agonist / IGF1 antibody screen); type: cell-based; settings: treatment 6 hours after LPS+ATP; compared with various IGF1 antibodies
Experimental: FIG. 8. Screening for anti-human IGF1 agonist antibody with a counter-inflammatory effect on microglial activation. Result of qPCR measuring levels of pro-inflammatory cytokine IL-6 induction in human microglial cell line that were stimulated by LPS and ATP (LPS+ATP) followed by treatment with IGF1R agonist Rg5 or various IGF1 antibodies 6 hours after LTP+ATP administration. […] Error bar=SEM. *P<0.05 by one way ANOVA.
qPCR was used to measure levels of pro-inflammatory cytokine IL-6 induction in a human microglial cell line stimulated by LPS and ATP (LPS+ATP) followed by treatment with IGF1R agonist Rg5 or various IGF1 antibodies 6 hours after LTP+ATP administration.

[2] = system: ischemic optic neuropathy in mice; assay: Mouse model of ischemic optic neuropathy, intravitreal injection; type: in vivo; settings: intravitreal injections at days 1, 8 and 17 post injury; 4 weeks after induction
Description: FIG. 9. Rescue of RGC function and vision by intravitreal injection of IGF1R agonist in a mouse model of ischemic optic neuropathy. Quantifications of electroretinogram positive scotopic threshold response (pSTR) amplitudes, visual acuity and contrast sensitivity before (Baseline) and at 4 weeks (4 wks) after induction of ischemic optic neuropathy in mice received intravitreal injections of control or RG5 IGF1R agonist at day 1, 8 and 17 post injury. Error bar=SEM. *P<0.05 by one way ANOVA.
The adult mice were dark adapted in a dark adaptation chamber overnight before conducting ERG. […] The pSTR was measured from the baseline to the peak of the positive deflection. […]
The mouse was placed on a small platform in the middle of the optomotor chamber. […] The contrast at a given spatial frequency is calculated using the formula (Lmax−Lmin)/(Lmax+Lmin) where Lmax is the brightness (in cd/m^2) of the white stripe, and Lmin is the brightness of the black stripe (in cd/m^2). Contrast level, stripe width, grating speed, and direction of stripe movement (clockwise vs. counterclockwise) were measured. According to the tracking of head movements on the mouse to the moving stripes, the visual acuity and contrast sensitivity can be measured. […] By changing the stripe width and the contrast, visual acuity and contrast sensitivity of mice can be assessed. […]

[3] = biological target: IGF-1R on mouse microglia (primary retinal and brain microglia, BV2 cell line) (mouse) (UniProt Q60751); assay: cell-based or functional assay
UniProt Q60751, sequence (Q60751 31-1373): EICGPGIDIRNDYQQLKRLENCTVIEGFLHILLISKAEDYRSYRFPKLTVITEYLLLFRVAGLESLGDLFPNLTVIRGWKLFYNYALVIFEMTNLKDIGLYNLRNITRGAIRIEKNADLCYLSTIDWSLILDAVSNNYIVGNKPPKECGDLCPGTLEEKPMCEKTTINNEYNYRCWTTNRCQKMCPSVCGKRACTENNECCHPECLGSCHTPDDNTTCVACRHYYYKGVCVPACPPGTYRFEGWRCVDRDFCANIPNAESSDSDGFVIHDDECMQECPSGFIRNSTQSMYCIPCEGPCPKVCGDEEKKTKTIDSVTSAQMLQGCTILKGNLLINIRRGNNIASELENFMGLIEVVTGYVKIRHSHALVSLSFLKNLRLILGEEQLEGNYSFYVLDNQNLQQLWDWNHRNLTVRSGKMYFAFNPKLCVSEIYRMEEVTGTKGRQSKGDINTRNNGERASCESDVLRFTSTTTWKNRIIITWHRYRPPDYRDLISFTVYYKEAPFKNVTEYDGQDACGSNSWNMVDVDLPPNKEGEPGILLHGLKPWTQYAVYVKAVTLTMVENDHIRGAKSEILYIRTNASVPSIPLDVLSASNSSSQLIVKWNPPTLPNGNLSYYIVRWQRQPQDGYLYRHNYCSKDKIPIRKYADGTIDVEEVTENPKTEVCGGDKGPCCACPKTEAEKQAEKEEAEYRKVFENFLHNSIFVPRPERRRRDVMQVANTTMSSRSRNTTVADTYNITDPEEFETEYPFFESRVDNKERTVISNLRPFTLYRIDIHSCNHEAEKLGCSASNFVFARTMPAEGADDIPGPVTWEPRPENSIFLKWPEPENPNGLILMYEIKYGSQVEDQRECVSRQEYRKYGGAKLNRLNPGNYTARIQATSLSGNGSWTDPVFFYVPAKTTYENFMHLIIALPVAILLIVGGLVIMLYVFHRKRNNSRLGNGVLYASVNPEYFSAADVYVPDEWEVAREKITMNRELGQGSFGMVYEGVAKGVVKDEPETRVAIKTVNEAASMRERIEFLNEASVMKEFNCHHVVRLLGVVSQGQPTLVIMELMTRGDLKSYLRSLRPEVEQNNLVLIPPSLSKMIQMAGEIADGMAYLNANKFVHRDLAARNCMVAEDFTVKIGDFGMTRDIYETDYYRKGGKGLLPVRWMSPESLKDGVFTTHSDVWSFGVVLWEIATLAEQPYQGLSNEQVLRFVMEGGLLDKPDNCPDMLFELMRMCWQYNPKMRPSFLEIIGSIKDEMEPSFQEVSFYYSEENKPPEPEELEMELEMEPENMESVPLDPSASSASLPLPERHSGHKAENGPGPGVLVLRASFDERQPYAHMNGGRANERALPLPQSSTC

Row | Molecule | Anti-inflammatory effect on IL-6 induction (qPCR) [1] | RGC function (pSTR amplitudes) and vision (visual acuity, contrast sensitivity) [2] | PI3K phosphorylation (Western blot, BV2 microglia) [3]
1 | CC(C)=CC/C=C(\C)[C@H]1CC[C@]2(C)[C@@H]1[C@H](O)C[C@@H]1[C@@]3(C)CC[C@H](O[C@@H]4O[C@H](CO)[C@@H](O)[C@H](O)[C@H]4O[C@@H]4O[C@H](CO)[C@@H](O)[C@H](O)[C@H]4O)C(C)(C)[C@@H]3CC[C@]12C [Rg5, ginsenoside RG5] | largest anti-inflammatory effect; also recorded: greatest anti-inflammatory effect | protects RGC function and vision against ischemic optic neuropathy-induced functional loss | –
2 | insulin-like growth factor binding protein like protein 1 (IGFBPL1), recombinant (R&D system, 4130-BL) (from UniProt Q80W15 18-270) (ligand) | – | – | 8 fold
